Reference: patent US20170342046A1, “Fatty Acid Cysteine-Based Conjugates and Their Use in Treating Medical Disorders” (Catabasis Pharmaceuticals, Inc., priority 2016, published 2017)

Tests used:
[1] = tested on: C2C12 cells; assay: Metabolic flux analysis: oxygen consumption rate (OCR) in Sea Horse XF96 under H2O2 stress; format: cell-based, mouse; conditions: for OCR over time, bioenergetics: 1 μM and 10 μM, treated 4 hours prior to 1 mM H2O2 stress; for OCR corrected for antimycin A, mitochondrial bioenergetics: 10 μM; for OCR corrected for antimycin A, mitochondrial bioenergetics / OCR upon the addition of FCCP (FIG. 1A) / OCR upon the addition of FCCP: 4 hours; for OCR corrected for antimycin A, mitochondrial bioenergetics / OCR upon the addition of FCCP: 1 mM H2O2 stress; for OCR upon the addition of FCCP (FIG. 1A): 500 μM H2O2 stress
Method: C2C12 cells were cultured in Sea Horse XF96 plates according to the manufacturer's instructions and established protocols (see www.seahorsebio.com/products/instruments/selection.php; Yao et al., PROC. NATL. ACAD. SCI. USA (2009) 106, p. 14670-14675).
On the day of the assay, cells were incubated with the compounds of the invention for either 4 hours or 24 hours. The short 4 hour incubation with the test compounds allowed one to evaluate for improvement of mitochondrial bioenergetics under the “scavengers” conditions (i.e. conditions in which the test compounds could effectively scavenge the various reactive oxygen species). The longer 24 hour incubation with the test compounds allowed one to evaluate for improvement of mitochondrial bioenergetics under the Nrf2 conditions (i.e. conditions in which the test compounds could effectively activate the Nrf2 antioxidant pathway in order to cope with the various reactive oxygen species). For these assays, H2O2 was used as the source of reactive oxygen species. Under the general stress test, cells were then exposed to either 500 μM of H2O2 or 1 mM of H2O2 for 4 hours before the evaluation in the Sea Horse system. Baseline measurements of the oxygen consumption rate (OCR) were taken before sequential injections of the various mitochondrial inhibitors. Readings were taken after addition of the mitochondrial inhibitor before injection of the subsequent inhibitors. The mitochondrial inhibitors that were used included oligomycin (1 μM), FCCP (1 μM) and Antimycin A (1 μM). Oligomycin is a known inhibitor ATP synthase; addition of this reagent essentially stopped the synthesis of ATP. Antimycin A inhibits the electron transport chain in the mitochondria. FCCP essentially uncouples the mitochondria and allows one to measure the maximum respiration. Measurements of the OCR following the addition of FCCP allows one to assess the mitochondrial content. An improvement in the OCR following the addition of FCCP is a reflection of the improvement in bioenergetics, when the proper control groups were put in place. The OCR were automatically calculated and recorded by the Sea Horse XF96 software. Ten measurements were taken at each of the indicated time points. Statistical significance in different treatment groups were determined by an ANOVA, followed by a Newman-Keuls post hoc analysis. Compounds I-1, I-3 and 1-5 were evaluated for mitochondrial bioenergetics under various conditions.

[2] = tested on: human epithelial cells from CF patients with homozygous ΔF508 mutation; conditions: 250 μM; cited from earlier work
[3] = 5K U/mL catalase positive control

## CC/C=C\C/C=C\C/C=C\C/C=C\C/C=C\C/C=C\CCC(=O)N[C@@H](CSSC(C)(C)CNC(=O)c1cccnc1)C(=O)O [I-3, N-((4Z,7Z,10Z,13Z,16Z,19Z)-docosa-4,7,10,13,16,19-hexaenoyl)-S-((2-methyl-1-(nicotinamido)propan-2-yl)thio)-L-cysteine]
[1]
  OCR over time, bioenergetics: dose-dependent increase in bioenergetics
  OCR corrected for antimycin A, mitochondrial bioenergetics: significant improvement in mitochondrial bioenergetics, essentially comparable to the positive control NAC

## CC/C=C\C/C=C\C/C=C\C/C=C\C/C=C\C/C=C\CCC(=O)N[C@@H](CSSC(C)(C)CNC(=O)CC(O)C[N+](C)(C)C)C(N)=O (stereo partly drawn) [I-5, 4-((2-(((R)-3-amino-2-((4Z,7Z,10Z,13Z,16Z,19Z)-docosa-4,7,10,13,16,19-hexaenamido)-3-oxopropyl)disulfanyl)-2-methylpropyl)amino)-2-hydroxy-N,N,N-trimethyl-4-oxobutan-1-aminium]
[1]
  OCR over time, bioenergetics: dose-dependent increase in bioenergetics
  OCR corrected for antimycin A, mitochondrial bioenergetics: significant improvement in mitochondrial bioenergetics, essentially comparable to the two positive control arms, catalase or NAC

## catalase [reference compound]
[1]; [3]
  OCR upon the addition of FCCP (FIG. 1A): significant restoration of the OCR upon the addition of FCCP
  OCR upon the addition of FCCP: increase in the OCR upon the addition of FCCP; almost to the same level observed with the normal control groups

## CC(=O)N[C@@H](CS)C(=O)O [NAC, N-acetyl cysteine, reference compound]
[1]; 5 mM NAC positive control
  OCR upon the addition of FCCP (FIG. 1A): significant restoration of the OCR upon the addition of FCCP
  OCR upon the addition of FCCP: increase in the OCR upon the addition of FCCP; almost to the same level observed with the normal control groups

## NCCSSCCN [cystamine]
[2]
  CFTR at the plasma membrane: restoration of the CFTR to the plasma membrane
  autophagy: up-regulation of autophagy
